Legend:
[1] = test system: non-resistant type of E. coli; assay: Mass spectrometric (MALDI) protein profile after incubation with antibiotic in liquid nutrient medium, non-resistant strain; assay type: cell-based, Escherichia coli; conditions: ampicillin in a liquid nutrient medium allowed to act for two hours, FIG. 2 top
Experimental: (§1) The non-resistant type of E. coli (top) has been destroyed; all protein signals of the mass spectra from FIG. 1 have disappeared.
(§2) The illustrative method starts in step 300 and comprises the following steps: • (a) In step 302, a quantity of microbes under investigation is added to a nutrient medium which also contains a quantity of the antibiotic, • (b) Next, in step 304, the microbes are incubated at a predetermined temperature for a predetermined length of time, preferably not longer than a few hours, • (c) In step 306, the microbes are then removed from the nutrient medium by a suitable means, such as centrifuging, • (d) The microbes are then applied, in step 308, together with a matrix solution to a mass spectrometric sample support and the matrix solution is dried on the sample support to form a sample, • (e) In step 310, a mass spectrum of this sample is acquired, and • (f) Then, in step 312, the acquired mass spectrum is compared with reference mass spectra of these microbes. The process then finishes in step 314.
Infectious microbes are incubated for about two hours at temperatures of between 35° C. and 40° C. in the presence of the antibiotics. This temperature is the optimum one for most infectious microbes because they are generally adapted to a life in mammals. […]

[2] = test system: E. coli with a resistance to ampicillin due to a plasmid pUC19; assay: Mass spectrometric (MALDI) protein profile after incubation with antibiotic in liquid nutrient medium, resistant strain; assay type: cell-based, Escherichia coli; conditions: ampicillin in a liquid nutrient medium allowed to act for two hours, FIG. 2 bottom
Experimental: The mass spectra contain predominantly protein signals of the same mass, with the usual lack of reproducibility of the intensities. They are identified as being identical by suitable computer programs.
as §1, §2
Infectious microbes are incubated for about two hours at temperatures of between 35° C. and 40° C. in the presence of the antibiotics. […]

## CC1(C)S[C@@H]2[C@H](NC(=O)[C@H](N)c3ccccc3)C(=O)N2[C@H]1C(=O)O [ampicillin]
[1]
  effect on microbes / protein signals of the mass spectrum: destroyed
[2]
  effect on microbes / protein profile of the mass spectrum: protein profile which is sufficiently similar to the two mass spectra in FIG. 1

— patent US9897613B2, “Mass spectrometric measurement of microbial resistances” (Bruker Daltonik GmbH, priority 2007, dated 2018)
